From a melting point compilation (Tetko et al.; mined from patent text by program, amines drawn as free bases though some values may be those of a salt)

First: CCOC(=O)c1c(NC(=O)NC(C)C)sc(C)c1C
Second: COC(=O)CCC(=O)Oc1c(C)c(C)c2c(c1C)SC(C)O2 (stereo not drawn)
The melting point of the first is higher: 135 °C for the first, 73 to 75 °C for the second.

First: COc1ccc(/C=C(\C#N)c2ccc(Cl)c(Cl)c2)cc1OC1CCCC1
Second: COc1ccc(-c2nc3cc(Cl)cc(C#CCN(O)C(=O)OC(C)(C)C)c3o2)cc1OC1CCCC1
The melting point of the first is lower: 152 to 154 °C for the first, 157 to 161 °C for the second.

First: CC(c1cccnc1)n1nnc2cc3c(cc2c1=O)OC1CCCN1C3=O (stereo not drawn)
Second: O=C1CNc2ncc(-c3cccnc3)cc2N1Cc1ccccc1
The melting point of the first is higher: 195 to 196 °C for the first, 58 °C for the second.

First: CCOC(=O)CCCNc1ccc(OCC(C)(C)C)c(C#N)c1
Second: CCCCCCNc1ccc([N+](=O)[O-])cc1C(=O)O
The melting point of the first is lower: 88 °C for the first, 161 to 163 °C for the second.

First: CCCCCCCCCCOc1c(Br)sc(-c2nc3ccccc3s2)c1OCCCCCCCCCC
Second: CCCCCCCCCCCCCCCCSCCO
The melting point of the first is lower: 42 to 43 °C for the first, 50 °C for the second.

Compared with `COc1c(Br)cc(N)cc1C(C)=O`, `Cc1nc2cc(N)c(N)cc2n1C` is higher in melting point: 93 to 94 °C for the first, 212 °C for the second.

Compared with `CCCCCCOc1ccc(NC(=O)c2cnc(C(=O)OC)c(OC)c2)cc1`, `COc1ccc(C(=O)Nc2ccc3cccnc3n2)cc1` is higher in melting point: 118 to 119 °C for the first, 150 °C for the second.

First: CCOC(=O)Cn1c(=O)c2cc(Cc3ncc[nH]3)ccc2n(Cc2ccc(Cl)c(Cl)c2)c1=O
Second: Cc1cc(N2N=CCNC2=O)cc(Cl)c1Cc1ccc(Cl)cc1
The melting point of the first is lower: 201 to 202 °C for the first, 209 to 210 °C for the second.

First: CN1CCN2c3ccccc3Cn3c(c(CO)c4ccccc43)C2C1 (stereo not drawn)
Second: Cc1c(CO)nc2c(OCc3ccccc3)cccn12
The melting point of the first is higher: 184 to 189 °C for the first, 172 to 175 °C for the second.

Compared with `CS(=O)(=O)C(=C1CN(C(c2ccc(Cl)cc2)c2ccc(Cl)cc2)C1)c1cccc(SC(F)(F)F)c1`, `CSc1cc(-c2ccc(Cl)cc2)nc(-c2cccc(Cl)c2)c1` is higher in melting point: 70 °C for the first, 98.4 °C for the second.

First: CC1=C(CCN(O)C(N)=O)/C(=C/c2ccc(S(C)=O)cc2)c2ccccc21 (stereo not drawn)
Second: Cc1ccsc1C(=O)c1cccn1N1C(=O)c2ccccc2C1=O
The melting point of the first is lower: 166 to 169 °C for the first, 221 to 223 °C for the second.

Compared with `Cc1ccc(C2COc3c(C)c(C)c(NC(=O)CC(C)(C)C)c(C)c32)nc1` (stereo not drawn), `Cc1nc(-c2ccc3c(=O)n(CC(C)C)c(CNC(=O)OC(C)(C)C)c(-c4ccccc4)c3c2)sc1C(N)=O` is higher in melting point: 170 to 171 °C for the first, 227 to 228 °C for the second.

Compared with `CC(=O)Nc1ccc(C(=O)Nc2ccc(C(=O)N3CCCCc4ccccc43)cc2)c(Cl)c1`, `O=C(Nc1ccccc1)c1ccc(-c2n[nH]c3c2Cc2ccccc2-3)cc1` is lower in melting point: 214 to 243 °C for the first, 186 to 190 °C for the second.

Compared with `CSC(C)(C(=O)O)c1ccc(N2C(=O)c3ccccc3C2=O)cc1` (stereo not drawn), `COc1ccc(-n2c(=O)oc(=O)c3ccccc32)cc1` is higher in melting point: 202 to 204 °C for the first, 215 to 216 °C for the second.

First: CCCCC(=O)C(Cc1ccc(C#N)cc1)c1ccccc1 (stereo not drawn)
Second: CN(C)CCN(C)C(=O)Cc1ccc(NC(=O)OCc2ccccc2)cc1
The melting point of the first is lower: 70 °C for the first, 109 to 110 °C for the second.

First: O=c1c2ccccc2nc(CCl)n1-c1ccc(Cl)cc1
Second: CCc1nnc(-c2ccc(O)cc2)n1-c1ccc(O)cc1
The melting point of the first is lower: 234 to 235 °C for the first, 317 to 318 °C for the second.

First: NC(=O)CN1CC2CCCCCC2C1=O (stereo not drawn)
Second: NN=Cc1ccc(CC(=O)NC2CCC3(CC2)CN(CC(=O)O)C(=O)O3)cc1 (stereo not drawn)
The melting point of the first is lower: 145 to 147 °C for the first, 193 to 196 °C for the second.

First: COC(=O)c1c(N)cccc1[N+](=O)[O-]
Second: CN(C)C=Cc1cccc(CC(=O)O)c1[N+](=O)[O-]
The melting point of the first is lower: 105 to 107 °C for the first, 124 to 126 °C for the second.

First: Cn1ncc(C=O)c1-c1cccnc1
Second: Cn1ncc2c1C(=O)Nc1cccnc1N2
The melting point of the first is lower: 118 to 119 °C for the first, 304 to 305 °C for the second.

First: Cc1c(C(=O)O)sc2ccc(CO)cc12
Second: CNc1c([N+](=O)[O-])cc2c(=O)c(C(=O)O)cn(-c3cc(N)c(F)cc3F)c2c1C
The melting point of the first is lower: 260 to 262 °C for the first, 275 to 281 °C for the second.

Compared with `O=Cc1cc(OCc2ccccc2)ccc1O`, `O=C(c1ccc(F)cc1)c1c(OCc2ccccc2)c(=O)ccn1CCO` is higher in melting point: 94 to 96 °C for the first, 182 to 183 °C for the second.

Compared with `CC(C)(C)C(NC(=O)c1ccccc1)Nc1c(Nc2cccnc2)c(=O)c1=O` (stereo not drawn), `COC(=O)Nc1cccc(OC(=O)N(CCC#N)c2ccccc2)c1` is lower in melting point: 246 to 247 °C for the first, 98 to 99 °C for the second.

Compared with `Cc1cc(OCc2nc(-c3ccc(C(F)(F)F)cc3)no2)ccc1OC(C)(C)C(=O)O`, `COc1ccc2cc(-c3ccc(OCC(O)CNC(C)C)cc3)n(C)c(=O)c2c1` (stereo not drawn) is lower in melting point: 170 °C for the first, 140 to 142 °C for the second.

First: COc1ccc(Cl)cc1C(=O)NCCc1ccc(-c2ccc(O)cc2)cc1
Second: COc1ccc(-c2cc(-c3ccccc3)[nH]c2C(=O)NCc2ccc(C(=O)NO)cc2)cc1
The melting point of the first is lower: 169 °C for the first, 187 to 188 °C for the second.

Compared with `CCOC(=O)c1ccc(N(CC)Cc2ccc(Cl)cc2)cc1`, `O=C(c1ccc(Cl)cc1)C(Oc1cccc(Cl)n1)n1cncn1` (stereo not drawn) is higher in melting point: 48 to 50 °C for the first, 162 °C for the second.

First: CC1(C(=O)n2ccnc2)CC1
Second: O=C(O)C1(c2ccc(I)cc2)CC1
The melting point of the first is lower: 34 to 35 °C for the first, 150 to 152 °C for the second.

First: CCN(CC)c1cccc(COc2ccc(N)nn2)c1
Second: CCCC#Cc1cnc(-c2ccc(F)cc2)nc1
The melting point of the first is higher: 115 to 118 °C for the first, 51 °C for the second.

Compared with `Cc1cccc(CN2CCCN(C)C(=O)[C@H]2NC(=O)OCc2ccccc2)c1`, `COc1ccc2c(c1)c(C1CCN(CCOc3ccccc3C(=O)O)CC1)cn2Cc1cccs1` is higher in melting point: 70 to 71 °C for the first, 150 to 151 °C for the second.

`O=C(CCCOc1ccc2nc3[nH]c(=O)[nH]c3cc2c1)NC1CCCC1` and `Cc1cc(=O)[nH]nc1-c1ccc2c(c1)C(C)CC(=O)N2` (stereo not drawn) cannot be ordered by melting point: over 320 °C for the first, over 300 °C for the second.

Compared with `C[Si](C)(C)c1cc(Cl)sc1C(=O)NCCOS(C)(=O)=O`, `CN(C)CCCNC(=O)c1ccccc1NS(=O)(=O)c1cccc(C(F)(F)F)c1` is higher in melting point: 82 to 86 °C for the first, 116 to 123 °C for the second.

Compared with `COc1cc(-c2nc3ccccc3n2Cc2ccccc2Cl)cc(OC)c1OC`, `COc1ccc(S(=O)(=O)Nc2c(Cl)cccc2Cl)c2c1[nH]c1ccccc12` is higher in melting point: 174 °C for the first, 201 to 205 °C for the second.

First: CC(C)(C)OC(=O)c1cc[nH]c1
Second: CC(C)(C)OC(=O)Nc1ccncc1C(=O)O
The melting point of the first is lower: 82 to 84 °C for the first, 260 °C for the second.

First: CC(=O)NNC(=O)Nc1ccccc1-c1ccc(C)cc1
Second: Cc1cccc(-c2nc3c(o2)C(=O)c2ccccc2C3=O)c1
The melting point of the first is lower: 102 to 104 °C for the first, 255 °C for the second.

First: CC(=O)N1CCc2ccsc2C1=O
Second: CC1NS(=O)(=O)c2sccc21 (stereo not drawn)
The melting point of the first is higher: 92 °C for the first, 79 to 81 °C for the second.

Compared with `CN(C)C1CC2=CNC=C3C=C(C#N)OCC1=C32` (stereo not drawn), `COC1=CC(=O)C2=C(C1=O)C1C=CC2C1` (stereo not drawn) is lower in melting point: 205 to 207 °C for the first, 117 to 118 °C for the second.

First: CCCCCn1cc2cc(CCCC)oc2nc1=O
Second: CCc1nn2ccccc2c1NC(=O)COC
The melting point of the first is higher: 139 to 141 °C for the first, 106 to 108 °C for the second.

First: N#Cc1cccc(-c2cncc(OC3SCC(O)C(O)C3O)c2)c1 (stereo not drawn)
Second: N#Cc1cnn2c(-c3ccccc3C(F)(F)F)ccnc12
The melting point of the first is lower: 172 °C for the first, 196 to 197 °C for the second.

First: CN(C)C(=O)C=Cc1ccc(SC2Cc3cc(O)ccc3C3CCC4(C)C(O)CCC4C23)cc1 (stereo not drawn)
Second: CNC(=O)c1ccc(C=C2CC3CCC(C2)N3)cc1
The melting point of the first is lower: 152 to 155 °C for the first, 164 to 166 °C for the second.

First: Cc1ccc2c3c(ccc2n1)OCC(CN1CCC(c2nc4ccccc4o2)CC1)O3 (stereo not drawn)
Second: NC(=O)c1ccc(F)c2c1CC(N(CCCc1c[nH]c3c(Cl)cccc13)C1CCC1)CO2 (stereo not drawn)
The melting point of the first is lower: 128 to 130 °C for the first, 154 to 163 °C for the second.

First: CN(C)c1ccc(NC(=O)N(C[C@@H]2CCCC[C@H]2CN(C(=O)Nc2ccc(N(C)C)cc2)C2CCCCC2)C2CCCCC2)cc1 (relative stereo)
Second: CN(CC(=O)N1CCN(Cc2ccc3c(c2)OCO3)CC1)c1ccc(Oc2ccc(NS(=O)(=O)c3ccc(Cl)c(Cl)c3)cn2)c(F)c1
The melting point of the first is lower: 108 to 114 °C for the first, 186 to 187 °C for the second.

Compared with `CC(C)c1c(C=C(Cl)Cl)c(-c2ccc(F)cc2)n2c1CCCC2`, `Cc1ccc(S(=O)(=O)N2CCCC2CO)cc1` (stereo not drawn) is lower in melting point: 97 to 98 °C for the first, 90 to 91 °C for the second.

First: CCc1nn(Cc2cccnn2)c(C(N)=O)c1N
Second: Cc1nn(-c2cncnc2)cc1N
The melting point of the first is lower: 171 to 174 °C for the first, 211 to 215 °C for the second.

First: CCOC(=O)c1c(S(=O)c2ccccc2)n(C2CC2)c2c(F)c(F)c(F)cc2c1=O (stereo not drawn)
Second: COc1c(N2CC(OC)C(C)(N)C2)c(F)cc2c(=O)c(C(=O)O)cn([C@@H]3C[C@@H]3F)c12 (stereo partly drawn)
The melting point of the first is higher: 190 to 191 °C for the first, 150 to 151 °C for the second.

First: COc1ccc(OCC#N)c(SCC#N)c1
Second: CSc1cc(C(=O)C(C#N)C(=O)C2CC2)ccc1C (stereo not drawn)
The melting point of the first is lower: 53 to 54 °C for the first, 64.7 to 67.9 °C for the second.

Compared with `CC(=O)C(=C1SCCCN1Br)[N+](=O)[O-]`, `CC(C)[C@H](OCc1ccccc1F)[C@H]1[C@H]([N+](=O)[O-])[C@H](c2ccccc2)N[C@@H]1C(=O)NCC(=O)O` is lower in melting point: 101 to 104 °C for the first, 72 to 73 °C for the second.

First: COc1cc2c(c3c1OC(C)(C)C3)C(c1ccccc1)=NC(C)(CN1C(=O)c3ccccc3C1=O)C2 (stereo not drawn)
Second: c1ccc(-c2nnc3cc(N4CCOCC4)c(OCc4ccccn4)nn23)cc1
The melting point of the first is lower: 121 to 125 °C for the first, 214 °C for the second.

First: O=c1c2ccc(O)cc2oc2oc3cc(O)ccc3c12
Second: O=c1[nH]c2cc(Br)ccc2c(=O)o1
The melting point of the first is higher: over 300 °C for the first, 280 to 281 °C for the second.

First: Cn1cc(-c2cccc(-n3ncc4cc(C(C)(C)C)cc(F)c4c3=O)c2CO)cc(Nc2ccc(C(C)(C)C(=O)O)cn2)c1=O
Second: COc1cc2c(cc1OC)CN(CCCSc1ccc(NC(=O)c3cccc4c(=O)c5cccc(F)c5[nH]c34)cc1)CC2
The melting point of the first is higher: 218 to 220 °C for the first, 162 °C for the second.

First: Nc1nc2ccccc2c2c1ncn2CCOCC#Cc1ccccc1C(F)(F)F
Second: O=C(N[C@@H](Cc1ccc(C(=O)c2ccccc2)cc1)C(=O)O)OCC1c2ccccc2-c2ccccc21
The melting point of the first is higher: 154 to 155 °C for the first, 115 to 117 °C for the second.

Compared with `O=C(O)CNC(=O)NCCCCC1CCSS1` (stereo not drawn), `CCCC1CCC(C2CCC(OCCCO)CC2)CC1` (stereo not drawn) is higher in melting point: 95 to 96 °C for the first, 110 to 111 °C for the second.

First: COc1c(C)c(C)c(OC)c(C(O)CN)c1C (stereo not drawn)
Second: CN(C)CCNC(=O)c1ccc(Br)cc1
The melting point of the first is higher: 110 to 112 °C for the first, 67 to 69 °C for the second.

`O=S(=O)(c1ccccc1)N1CCCC1c1ccc(Cl)cc1` (racemic) showed a melting point of 122 °C.
